In ChEMBL document CHEMBL1201862, “PubChem BioAssay data set” (2004):
Active and inactive are the calls of the source.

What was measured:
Large T antigen = Large T antigen (Simian virus 40, UniProt P03070); format: functional, Betapolyomavirus macacae;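 also: Confirmatory-stage PubChem screen for compounds that inhibit SV40 T antigen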
[1] = viability loss in Vero cells – cytotoxicity control for Vif-APOBEC3G degradation inhibitor project, dose response (AID 1117358); format: functional; conditions: Vero
INS1 = test: INS-1E survival protection against cytokine death – cell-based, luminescence, retest, dose response (AID 449756); format: functional; conditions: Rattus norvegicus;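 also: cell death triggered by IL-1 beta plus TNF-alpha plus IFN-gamma mixture; protective hits raise ATP signal compared with cytokine alone wells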
[2] = target: T1, COUP transcription factor 2 (Homo sapiens, UniProt P24468); test: Luminescence-based cell-based high throughput dose response assay to identify inhibitors of COUP-TFII (NR2F2).; format: functional;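 also: HEK293 cells transiently cotransfected with COUP-TFII expression vector and reporter; luciferase reporter luminescence driven by COUP-TFII from the pX2-168 reporter plasmid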
T1 sequence (P24468 whole entry): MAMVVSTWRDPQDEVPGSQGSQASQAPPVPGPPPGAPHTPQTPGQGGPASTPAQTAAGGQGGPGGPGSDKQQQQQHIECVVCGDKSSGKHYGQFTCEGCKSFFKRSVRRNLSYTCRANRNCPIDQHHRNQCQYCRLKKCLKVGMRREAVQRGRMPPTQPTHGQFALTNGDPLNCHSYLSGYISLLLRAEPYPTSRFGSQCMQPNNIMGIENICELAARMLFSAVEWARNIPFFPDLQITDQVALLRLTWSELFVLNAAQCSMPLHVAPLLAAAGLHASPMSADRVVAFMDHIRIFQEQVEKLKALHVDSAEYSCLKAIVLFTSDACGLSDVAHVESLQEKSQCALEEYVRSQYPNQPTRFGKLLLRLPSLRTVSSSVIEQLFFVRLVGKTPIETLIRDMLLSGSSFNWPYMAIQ

Coagulation factor XII = target: T2, Coagulation factor XII (Homo sapiens, UniProt P00748); format: functional;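 also: activated factor XIIa alpha cleaving a fluorogenic AMC peptide substrate; inhibitor potency from loss of enzyme activity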
T2 sequence (P00748 whole entry): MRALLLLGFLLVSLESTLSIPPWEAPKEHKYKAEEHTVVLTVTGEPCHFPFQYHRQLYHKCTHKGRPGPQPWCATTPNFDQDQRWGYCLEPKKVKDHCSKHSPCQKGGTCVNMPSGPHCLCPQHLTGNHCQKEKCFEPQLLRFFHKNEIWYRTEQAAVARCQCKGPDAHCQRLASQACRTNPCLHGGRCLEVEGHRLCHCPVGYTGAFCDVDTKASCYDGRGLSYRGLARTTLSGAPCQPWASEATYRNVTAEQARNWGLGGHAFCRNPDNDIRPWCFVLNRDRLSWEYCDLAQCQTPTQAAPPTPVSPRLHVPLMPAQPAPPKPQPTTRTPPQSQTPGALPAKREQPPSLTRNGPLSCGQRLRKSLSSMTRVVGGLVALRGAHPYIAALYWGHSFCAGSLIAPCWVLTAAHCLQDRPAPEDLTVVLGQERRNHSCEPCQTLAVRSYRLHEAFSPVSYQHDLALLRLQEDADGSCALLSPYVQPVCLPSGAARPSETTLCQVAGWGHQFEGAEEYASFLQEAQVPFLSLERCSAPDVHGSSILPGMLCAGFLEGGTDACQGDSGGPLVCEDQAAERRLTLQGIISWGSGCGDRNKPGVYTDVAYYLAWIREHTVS

Prothrombin = Prothrombin (Homo sapiens, UniProt P00734); test: Thrombin 1536 HTS Dose Response Confirmation. [Related pubchem assays: 1046 (Thrombin 1536 HTS; hits were confirmed in this assay)]; format: functional
cells = format: functional, cell-based; conditions: HEK-CNG
Galanin receptor type 3 = target: T3, Galanin receptor type 3 (Homo sapiens, UniProt O60755); test: Fluorescence-based cell-based primary high throughput dose response assay to identify antagonists of the Galanin Receptor 3 (GalR3).; format: functional
T3 sequence (O60755 whole entry): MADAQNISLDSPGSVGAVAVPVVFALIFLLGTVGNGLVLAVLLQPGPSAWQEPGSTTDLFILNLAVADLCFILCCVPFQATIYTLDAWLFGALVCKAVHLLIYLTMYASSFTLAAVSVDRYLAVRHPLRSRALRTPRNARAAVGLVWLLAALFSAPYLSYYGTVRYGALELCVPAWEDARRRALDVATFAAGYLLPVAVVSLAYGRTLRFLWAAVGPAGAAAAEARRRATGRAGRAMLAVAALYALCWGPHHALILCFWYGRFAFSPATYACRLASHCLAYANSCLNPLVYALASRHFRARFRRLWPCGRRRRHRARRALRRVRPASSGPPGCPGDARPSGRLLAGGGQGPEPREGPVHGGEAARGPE

Cytochrome P450 3A4 = Cytochrome P450 3A4 (Homo sapiens, UniProt P08684);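 also: CYP3A4 tested as one member of a cytochrome P450 panel screen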
Chain of Cytochrome P450 3A4 (P08684 whole entry): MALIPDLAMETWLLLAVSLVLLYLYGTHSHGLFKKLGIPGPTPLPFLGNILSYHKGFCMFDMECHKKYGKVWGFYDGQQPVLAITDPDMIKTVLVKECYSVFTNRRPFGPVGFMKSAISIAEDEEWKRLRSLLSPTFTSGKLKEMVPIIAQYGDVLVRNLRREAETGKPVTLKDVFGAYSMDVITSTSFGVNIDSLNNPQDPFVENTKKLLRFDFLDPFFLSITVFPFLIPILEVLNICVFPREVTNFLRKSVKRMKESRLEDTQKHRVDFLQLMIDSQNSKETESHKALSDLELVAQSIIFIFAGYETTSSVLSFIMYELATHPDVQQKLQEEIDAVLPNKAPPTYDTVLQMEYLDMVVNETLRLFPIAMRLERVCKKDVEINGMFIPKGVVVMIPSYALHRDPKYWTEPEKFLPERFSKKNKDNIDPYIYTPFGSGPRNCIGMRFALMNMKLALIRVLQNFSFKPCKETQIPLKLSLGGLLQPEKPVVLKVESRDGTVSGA

fMet-Leu-Phe receptor = target: T4, fMet-Leu-Phe receptor (Homo sapiens, UniProt P21462); test: formyl peptide receptor binders – dose response (AID 519); format: functional
T4 sequence (P21462 whole entry): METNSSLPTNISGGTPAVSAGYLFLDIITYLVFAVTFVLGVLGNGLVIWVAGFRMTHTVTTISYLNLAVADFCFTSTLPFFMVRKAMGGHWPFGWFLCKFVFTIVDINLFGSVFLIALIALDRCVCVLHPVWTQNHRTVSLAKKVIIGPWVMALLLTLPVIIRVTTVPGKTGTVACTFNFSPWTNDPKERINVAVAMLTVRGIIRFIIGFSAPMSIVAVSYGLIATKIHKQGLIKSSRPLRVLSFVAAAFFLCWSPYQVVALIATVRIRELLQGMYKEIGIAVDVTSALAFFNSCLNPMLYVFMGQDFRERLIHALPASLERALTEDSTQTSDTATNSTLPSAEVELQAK

Cytochrome P450 2C9 = Cytochrome P450 2C9 (Homo sapiens, UniProt P11712); conditions: Potency
Chain of Cytochrome P450 2C9 (P11712 whole entry): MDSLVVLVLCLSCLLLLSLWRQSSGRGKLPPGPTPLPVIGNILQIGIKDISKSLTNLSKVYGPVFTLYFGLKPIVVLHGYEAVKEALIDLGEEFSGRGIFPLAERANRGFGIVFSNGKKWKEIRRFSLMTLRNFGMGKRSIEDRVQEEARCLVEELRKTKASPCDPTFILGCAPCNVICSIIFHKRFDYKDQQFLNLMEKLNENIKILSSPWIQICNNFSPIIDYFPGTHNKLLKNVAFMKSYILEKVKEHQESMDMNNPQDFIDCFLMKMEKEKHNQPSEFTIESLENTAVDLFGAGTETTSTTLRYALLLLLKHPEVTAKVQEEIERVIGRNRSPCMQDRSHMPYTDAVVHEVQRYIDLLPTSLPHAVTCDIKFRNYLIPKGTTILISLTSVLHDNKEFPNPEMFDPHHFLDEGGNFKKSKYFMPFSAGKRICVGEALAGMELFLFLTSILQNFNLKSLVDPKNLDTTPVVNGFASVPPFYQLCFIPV

[3] = target: T5, Replicative DNA helicase DnaB (Mycobacterium tuberculosis, UniProt P9WMR3); test: DnaB intein splicing inhibitors, dose response, biochemical, cell-free fluorescence (AID 449749); format: functional
T5 sequence (P9WMR3 whole entry): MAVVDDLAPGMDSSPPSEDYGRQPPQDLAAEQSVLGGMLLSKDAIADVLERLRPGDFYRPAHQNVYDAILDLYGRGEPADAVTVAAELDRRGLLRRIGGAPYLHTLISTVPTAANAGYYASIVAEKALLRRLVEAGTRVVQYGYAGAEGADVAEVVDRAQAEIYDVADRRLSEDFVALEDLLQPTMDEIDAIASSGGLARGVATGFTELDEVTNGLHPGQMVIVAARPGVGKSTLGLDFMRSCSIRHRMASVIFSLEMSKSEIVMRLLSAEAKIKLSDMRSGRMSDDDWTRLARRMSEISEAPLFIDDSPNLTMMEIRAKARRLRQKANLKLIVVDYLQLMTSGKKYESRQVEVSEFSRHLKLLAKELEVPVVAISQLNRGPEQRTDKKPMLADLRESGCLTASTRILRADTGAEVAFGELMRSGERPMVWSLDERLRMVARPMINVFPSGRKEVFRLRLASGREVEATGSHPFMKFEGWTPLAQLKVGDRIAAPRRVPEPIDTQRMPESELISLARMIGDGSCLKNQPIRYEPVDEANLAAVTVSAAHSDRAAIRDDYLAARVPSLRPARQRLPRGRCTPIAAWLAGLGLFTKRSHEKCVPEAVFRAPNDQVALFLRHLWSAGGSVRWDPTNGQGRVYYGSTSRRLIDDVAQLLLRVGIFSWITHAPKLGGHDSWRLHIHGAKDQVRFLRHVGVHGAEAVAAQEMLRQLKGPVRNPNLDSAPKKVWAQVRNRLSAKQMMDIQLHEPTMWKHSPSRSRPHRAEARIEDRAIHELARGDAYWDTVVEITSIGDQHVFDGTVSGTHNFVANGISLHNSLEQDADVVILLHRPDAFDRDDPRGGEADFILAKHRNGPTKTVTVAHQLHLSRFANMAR

Protein RecA = target: T6, Protein RecA (Mycobacterium tuberculosis, UniProt P9WHJ3); test: Fluorescence Cell-Free Homogeneous Dose Retest to Identify Inhibitors of RecA-Intein Splicing Activity. [Related pubchem assays (depositor defined):AID2097, AID2223, AID489010, AID492950]; format: functional
T6 sequence (P9WHJ3 whole entry): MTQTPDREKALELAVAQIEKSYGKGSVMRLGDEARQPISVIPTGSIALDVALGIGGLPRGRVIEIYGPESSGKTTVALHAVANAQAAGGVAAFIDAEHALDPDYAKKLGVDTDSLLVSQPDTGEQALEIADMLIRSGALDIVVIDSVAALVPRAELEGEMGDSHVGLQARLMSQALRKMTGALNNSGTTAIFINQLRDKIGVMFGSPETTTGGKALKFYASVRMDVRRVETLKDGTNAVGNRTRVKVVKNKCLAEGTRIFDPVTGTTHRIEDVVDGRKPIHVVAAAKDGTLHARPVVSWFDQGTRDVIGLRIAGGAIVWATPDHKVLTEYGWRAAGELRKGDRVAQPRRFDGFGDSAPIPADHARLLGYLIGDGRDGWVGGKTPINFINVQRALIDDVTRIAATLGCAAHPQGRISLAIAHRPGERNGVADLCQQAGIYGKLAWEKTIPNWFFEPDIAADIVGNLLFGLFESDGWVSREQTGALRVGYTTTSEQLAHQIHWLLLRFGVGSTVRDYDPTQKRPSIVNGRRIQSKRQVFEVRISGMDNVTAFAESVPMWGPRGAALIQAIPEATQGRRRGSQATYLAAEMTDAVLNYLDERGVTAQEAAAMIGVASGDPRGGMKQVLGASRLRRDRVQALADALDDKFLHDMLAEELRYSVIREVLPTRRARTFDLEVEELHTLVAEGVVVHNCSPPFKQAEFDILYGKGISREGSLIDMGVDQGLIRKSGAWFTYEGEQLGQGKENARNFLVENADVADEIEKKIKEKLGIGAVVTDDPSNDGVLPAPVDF

[4] = target: Potassium voltage-gated channel subfamily KQT member 2 (Rattus norvegicus, UniProt O88943, W236L); test: potentiation of rat KCNQ2 current – cell-based, automated electrophysiology, mechanism study for KCNQ2 potentiator project, dose response (AID 2603); format: functional
Chain of Potassium voltage-gated channel subfamily KQT member 2 (O88943 whole entry W236L): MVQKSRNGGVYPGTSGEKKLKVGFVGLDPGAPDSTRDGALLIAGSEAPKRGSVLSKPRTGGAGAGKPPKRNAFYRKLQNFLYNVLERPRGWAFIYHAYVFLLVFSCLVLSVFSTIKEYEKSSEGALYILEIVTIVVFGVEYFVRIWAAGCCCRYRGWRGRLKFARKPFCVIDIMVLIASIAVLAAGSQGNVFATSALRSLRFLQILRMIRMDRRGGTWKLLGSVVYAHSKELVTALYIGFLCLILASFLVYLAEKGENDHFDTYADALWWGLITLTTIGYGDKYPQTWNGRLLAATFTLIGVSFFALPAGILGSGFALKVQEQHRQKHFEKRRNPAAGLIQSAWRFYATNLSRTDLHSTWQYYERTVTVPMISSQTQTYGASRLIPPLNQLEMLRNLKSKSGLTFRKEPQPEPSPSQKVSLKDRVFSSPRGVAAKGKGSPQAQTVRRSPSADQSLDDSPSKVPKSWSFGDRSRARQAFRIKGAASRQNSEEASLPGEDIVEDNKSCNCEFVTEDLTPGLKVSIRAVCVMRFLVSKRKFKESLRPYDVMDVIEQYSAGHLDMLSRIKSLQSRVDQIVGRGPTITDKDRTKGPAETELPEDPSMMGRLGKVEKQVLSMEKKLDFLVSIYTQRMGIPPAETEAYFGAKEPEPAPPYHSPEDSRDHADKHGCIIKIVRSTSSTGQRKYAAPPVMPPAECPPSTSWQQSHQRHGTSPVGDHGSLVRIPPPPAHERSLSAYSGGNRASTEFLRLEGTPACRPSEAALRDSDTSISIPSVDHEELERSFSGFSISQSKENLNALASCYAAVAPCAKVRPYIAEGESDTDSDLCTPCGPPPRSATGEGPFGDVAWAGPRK

[5] = reduced cellular PGC1a acetyl-lysine signal – cell-based, cherry-picked samples, dose response (AID 720514); format: functional;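 also: potency may reflect raised or lowered acetylation signal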
[6] = Luminescence Cell-Based Dose Retest to Confirm Inhibitors of Cancer Stem Cells. [Related pubchem assays (depositor defined):AID2717, AID2721]; format: functional; conditions: Homo sapiens
[7] = growth inhibition of yeast DHODH-expressing 3D7 parasites – SYBR Green, dry powder samples, dose response (AID 1159570); format: functional, cell-based;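 also: parasite growth measured after 72 hours of compound exposure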
[8] = growth inhibition of PfATP4-mutant resistant parasites – NITD609-resistant line, SYBR Green, dry powder, dose response (AID 1159571); format: functional, cell-based;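 also: parasites synchronized at ring stage by sorbitol before testing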
[9] = toxicity to human HepG2 hepatoma cells – cell-based, plate reader, dry powder samples, cytotoxicity control, dose response (AID 1159569); format: functional;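 also: inhibitor potency with signal falling toward the positive control level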
Paired box protein Pax-8 = Paired box protein Pax-8 (Homo sapiens, UniProt Q06710); test: PAX8 transcriptional activity inhibition in RMG-I – RMG-I cells, luciferase, cherry-pick, dose response (AID 687027); format: functional, cell-based;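 also: luciferase reporter driven by Pax8 target thyroperoxidase promoter measured by SteadyGlo luminescence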
Chain of Paired box protein Pax-8 (Q06710 whole entry): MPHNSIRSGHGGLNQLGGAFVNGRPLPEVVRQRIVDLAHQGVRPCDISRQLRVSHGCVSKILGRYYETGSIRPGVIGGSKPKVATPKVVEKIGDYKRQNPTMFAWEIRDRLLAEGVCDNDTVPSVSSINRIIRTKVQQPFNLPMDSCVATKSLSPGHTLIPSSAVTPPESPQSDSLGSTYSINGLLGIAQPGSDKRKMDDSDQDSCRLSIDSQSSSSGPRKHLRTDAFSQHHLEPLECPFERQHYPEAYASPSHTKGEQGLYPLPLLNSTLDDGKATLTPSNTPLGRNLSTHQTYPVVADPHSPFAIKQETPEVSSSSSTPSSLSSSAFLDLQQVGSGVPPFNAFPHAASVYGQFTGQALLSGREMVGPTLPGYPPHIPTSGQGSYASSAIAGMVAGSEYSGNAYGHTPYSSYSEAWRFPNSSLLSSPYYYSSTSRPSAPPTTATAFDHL

[10] = P. falciparum Dd2 growth inhibitors, dose response, SYBR Green, cherry-picked samples (AID 1159567); format: functional, cell-based
[11] = Dd2 malaria parasite growth inhibition potency – SYBR Green, dry powder samples, dose response (AID 1159566); format: functional, cell-based;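 also: potency for growth inhibition with lower SYBR green DNA signal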
[12] = OVCAR8 cell viability loss – plate reader, dry powder samples, PAX8 project, dose response (AID 743197); format: functional, cell-based; conditions: OVCAR-8
[13] = OVCAR-3 cell viability loss – plate reader, dry powder samples, PAX8 inhibitor project, dose response (AID 743044); format: functional, cell-based

Chain of Large T antigen (P03070 whole entry): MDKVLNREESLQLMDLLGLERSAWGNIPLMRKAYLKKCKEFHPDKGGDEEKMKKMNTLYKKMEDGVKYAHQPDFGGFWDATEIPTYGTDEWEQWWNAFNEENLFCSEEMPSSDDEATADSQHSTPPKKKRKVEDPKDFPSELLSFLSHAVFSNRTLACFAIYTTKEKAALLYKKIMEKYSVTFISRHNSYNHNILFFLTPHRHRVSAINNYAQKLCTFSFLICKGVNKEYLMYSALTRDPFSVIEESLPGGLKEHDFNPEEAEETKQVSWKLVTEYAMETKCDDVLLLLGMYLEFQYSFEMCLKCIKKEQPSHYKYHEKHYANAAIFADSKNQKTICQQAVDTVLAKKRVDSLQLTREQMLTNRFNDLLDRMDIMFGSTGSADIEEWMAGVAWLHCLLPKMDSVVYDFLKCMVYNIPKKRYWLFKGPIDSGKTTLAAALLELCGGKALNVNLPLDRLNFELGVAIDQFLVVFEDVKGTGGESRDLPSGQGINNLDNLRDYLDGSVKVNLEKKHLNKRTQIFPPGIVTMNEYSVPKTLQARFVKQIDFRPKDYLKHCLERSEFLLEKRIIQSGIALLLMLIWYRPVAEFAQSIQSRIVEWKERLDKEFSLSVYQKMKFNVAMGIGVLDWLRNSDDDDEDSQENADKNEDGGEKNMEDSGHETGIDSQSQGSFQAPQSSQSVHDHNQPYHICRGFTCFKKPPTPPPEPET

CCOc1cc(N2CCOCC2)c(OCC)cc1NS(=O)(=O)c1ccc(Cl)s1
IC50 (Large T antigen): 61.4 µM (active) | CC50 [1]: > 40 µM (active)

O=C(NCCc1cn2ccccc2n1)c1cc(COc2ccc3ncccc3c2)on1
AC50 (INS1): 6 µM (active) | IC50 [2]: 8.53 µM (active)

CCc1nnc(NC(=O)CCN(c2ccc(C)cc2)S(=O)(=O)c2ccccc2)s1
IC50 (Coagulation factor XII): > 50 µM (inactive) | IC50 (Prothrombin): > 50 µM (not active)

CC(=O)c1ccc(N2CCN(C(S)=Nc3ccc(Oc4ccccc4)cc3)CC2)cc1
IC50 [2]: 8.27 µM (active) | EC50 (cells): > 29.9 µM (inactive) | IC50 (Galanin receptor type 3): 1.23 µM (active)

CCC(NC(=O)Nc1cc(OC)c(OC)c(OC)c1)(C(F)(F)F)C(F)(F)F
AC50 (Cytochrome P450 3A4): 15.8 µM (inconclusive) | Ki (fMet-Leu-Phe receptor): > 66.7 µM (inactive)

COc1ccc(C#CC2C=CC(Oc3cc(C)cc(C)c3)C(CO)O2)cc1 (stereo not drawn)
AC50 (Cytochrome P450 2C9): 2 µM (inconclusive)

CSCC[C@@H](Nc1nc(-c2ccccc2)nc2c1oc1ccccc12)C(=O)O
CC50 [1]: > 40 µM (active)

CC(C)c1nnc(NC(=O)c2nc(S(=O)(=O)Cc3ccccc3F)ncc2Cl)s1
AC50 [3]: 4.25 µM (active) | EC50 (Protein RecA): 3.16 µM (active) | EC50 [4]: 8.4 µM (active)

O=C(Nc1ccc(N2CCN(Cc3ccccc3F)CC2)cc1)c1ccc([N+](=O)[O-])o1
AC50 [5]: 1.58 µM (active) | AC50 [6]: 1.29 µM (active)

CCC(=O)N=C(Nc1cccc(OC)c1)Nc1nc(C)cc(C)n1
IC50 (Prothrombin): 0.268 µM (active)

ClC1(Cl)CC1CSc1nc[nH]n1 (stereo not drawn)
IC50 (Prothrombin): > 50 µM (not active)

CCCCC#CC1C=CC(Oc2ccc(C(=O)OC)cc2)C(COC(=O)OCC)O1 (stereo not drawn)
AC50 (Cytochrome P450 2C9): 3.16 µM (inconclusive)

C=CS(=O)(=O)N(Cc1ccccc1Br)[C@H](CO)Cc1ccccc1
AC50 [5]: 1.05 µM (active)

C[C@H](CO)N1C[C@H](C)[C@@H](CN(C)Cc2ccc(Oc3ccccc3)cc2)OCc2ccccc2-c2c(n(C)c3ccccc23)C1=O
AC50 [7]: 3.28 µM (active) | AC50 [8]: 2.82 µM (active) | AC50 [9]: 20.3 µM (active) | AC50 (Paired box protein Pax-8): 17.1 µM (active) | AC50 [10]: 2.58 µM (active) | AC50 [11]: 2.58 µM (active)

C[C@H](CO)N1C[C@H](C)[C@H](CN(C)Cc2ccc(C(F)(F)F)cc2)Oc2ccc(NS(=O)(=O)c3ccc(F)cc3)cc2CC1=O
AC50 (Paired box protein Pax-8): 11.4 µM (active) | AC50 [12]: 52.5 µM (active)

C[C@@H]1CCCCO[C@@H](CN(C)C(=O)Nc2cccc3ccccc23)[C@H](C)CN([C@H](C)CO)C(=O)c2cc(NS(=O)(=O)c3ccc(Cl)cc3)ccc2O1
AC50 (Paired box protein Pax-8): 5.29 µM (active) | AC50 [13]: 36.6 µM (active) | AC50 [12]: 32.4 µM (active)

COc1ccc(-c2ccccc2[C@H]2[C@@H](C#N)N(C(=O)NC3CCCC3)[C@H]2CO)cc1
AC50 [7]: 1.21 µM (active) | AC50 [8]: 1.72 µM (active) | AC50 [9]: 65.8 µM (active) | AC50 [10]: 1.9 µM (active) | AC50 [11]: 1.27 µM (active)
